{
  "source": "patent US20130029970A1",
  "about": "(priority 2009, published 2013)",
  "key": {"[1]": {"tested_on": "CFA induced inflammatory pain in the rat", "test": "Complete Freund's Adjuvant (CFA) induced inflammatory pain model", "type": "in vivo", "conditions": "60 mg/kg PO", "protocol": "In this rat model of inflammatory pain, 100 uL of CFA diluted 1:1 with phosphate buffered saline was injected into the subplantar region of the right hind paw on Day 1. On day 3, test compounds were administered orally and rats were assessed for their reaction to a mechanical stimuli applied via an Analgesy® meter. Injection of CFA increased the rats' reactivity to painful stimuli and this was reflected in a decrease in the amount of pressure they could tolerate prior to withdrawing their paw from the apparatus (hyperalgesia). An anti-hyperalgesic activity of the test compound was denoted by an increase in the amount of pressure they can tolerate prior to withdrawing their paw from the apparatus. The mean±SEM for each treatment group was determined and a Dunnett test was applied for comparison between vehicle and treated groups. Differences were considered significant at P<0.05. (see Bertorelli et al. 1999 Brit Journ Pharmacol 128:1252)."}, "[2]": {"tested_on": "PBQ-induced writhing in the mouse", "test": "Phenylbenzoquinone-induced (PBQ) writhing model"}},
  "data": [
    {"smiles": "COc1ccc(C(=O)c2cc3cc(C)n(CCN4CCOCC4)c3s2)c(F)c1", "note": "[Compound I-68]", "values": [
      {"measurement": "Post CFA PWT (grams)", "setting": "[1]", "result": "178.7 ± 24.4", "unit": "grams"},
      {"measurement": "Number of Writhes", "setting": "[2]; Dose 3, PO", "result": "9.6 ± 2.2"},
      {"measurement": "Number of Writhes", "setting": "[2]; Dose 10, PO", "result": "5.92 ± 1.55"}
    ]},
    {"smiles": "COc1ccc(C(=O)c2cc3cc(C)n(CCN4CCOCC4)c3s2)c(Cl)c1", "note": "[Compound I-70]", "values": [
      {"measurement": "Post CFA PWT (grams)", "setting": "[1]", "result": "195.7 ± 16.4", "unit": "grams"},
      {"measurement": "Number of Writhes", "setting": "[2]; Dose 30, PO", "result": "3.2 ± 1.57"}
    ]},
    {"smiles": "COc1ccc(C(=O)c2cc3cc(C)n(CCCNS(C)(=O)=O)c3s2)c(F)c1", "note": "[Compound I-87]", "values": [
      {"measurement": "Post CFA PWT (grams)", "setting": "[1]", "result": "100.7 ± 11.3", "unit": "grams"},
      {"measurement": "Number of Writhes", "setting": "[2]; Dose 30, PO", "result": "17.2 ± 2.5"}
    ]},
    {"smiles": "COc1ccc(C(=O)c2cc3cc(C)n(CCCNS(C)(=O)=O)c3s2)cn1", "note": "[Compound I-109]", "values": [
      {"measurement": "Post CFA PWT (grams)", "setting": "[1]", "result": "132 ± 12.3", "unit": "grams"},
      {"measurement": "Number of Writhes", "setting": "[2]; Dose 3, PO", "result": "13.3 ± 2.3"},
      {"measurement": "Number of Writhes", "setting": "[2]; Dose 10, PO", "result": "8.93 ± 2.28"},
      {"measurement": "Number of Writhes", "setting": "[2]; Dose 30, PO", "result": "5.78 ± 1.75"}
    ]}
  ]
}
